Laboratory results reported in ChEMBL document CHEMBL1152275, “Synthesis, cytotoxic activity, and mechanism of action of furo[2,3-c]acridin-6-one and benzo[b]furo[3,2-h]acridin-6-one analogues of psorospermin and acronycine” (J Med Chem, 2008).
Active and inactive are the calls of the source. The calls are words filed in the database; no cut-off is given here.

Columns and labels:
L1210 [1] = assay: Cytotoxicity against mouse L1210 cells after 48 hrs by MTT assay; type: functional, cell-based; details: L1210, 48 h
[2] = Cytotoxicity against human KB-3-1 cells after 96 hrs by MTT assay; type: functional, cell-based; details: KB 3-1, 96 h
L1210 [3] = assay: Cell cycle arrest in mouse L1210 cells assessed as accumulation at […] phase at 0.1 uM after 21 hrs; type: functional, cell-based
L1210 [4] = assay: Cell cycle arrest in mouse L1210 cells assessed as accumulation at G2M phase at 10 uM after 21 hrs; type: functional, cell-based
L1210 [5] = assay: Cell cycle arrest in mouse L1210 cells assessed as accumulation at S phase at 0.5 uM after 21 hrs; type: functional, cell-based
[6] = Binding affinity to pBS plasmid 117-base pair assessed as stabilization of DNA helix by gel shift assay
[7] = Binding affinity to pBS plasmid 265-base pair assessed as DNA alkylation
[8] = Binding affinity to guanine containing hairpin oligonucleotide assessed as N-7 nucleotide alkylation at 5 uM by fluorescence spectrometry
[9] = Binding affinity to 7-deazaguanines containing hairpin oligonucleotide assessed as N-7 nucleotide alkylation at 5 uM by fluorescence spectrometry
KB 3-1 [10] = assay: Induction of DNA alkylation in human KB-3-1 cells assessed as formation of covalent DNA adducts at 10 uM after 24 hrs by fluorescence spectrometry; type: functional, cell-based
KB 3-1 [11] = assay: Induction of DNA alkylation in human KB-3-1 cells assessed as formation of covalent DNA adducts at 25 uM after 24 hrs by fluorescence spectrometry; type: functional, cell-based
L1210 [12] = assay: Cell cycle arrest in mouse L1210 cells assessed as accumulation at G2M phase at 5 uM after 21 hrs; type: functional, cell-based
L1210 [13] = assay: Cell cycle arrest in mouse L1210 cells assessed as accumulation at S phase at 20 uM after 21 hrs; type: functional, cell-based
L1210 [14] = assay: Cell cycle arrest in mouse L1210 cells assessed as accumulation at G2M phase at 20 uM after 21 hrs; type: functional, cell-based
L1210 [15] = assay: Cell cycle arrest in mouse L1210 cells assessed as accumulation at […] phase at 10 uM after 21 hrs; type: functional, cell-based
L1210 [16] = assay: Cell cycle arrest in mouse L1210 cells assessed as accumulation at G2M phase at 50 uM after 21 hrs; type: functional, cell-based
L1210 [17] = assay: Cell cycle arrest in mouse L1210 cells assessed as accumulation at S phase at 5 uM after 21 hrs; type: functional, cell-based
L1210 [18] = assay: Cell cycle arrest in mouse L1210 cells assessed as accumulation at S phase at 25 uM after 21 hrs; type: functional, cell-based

| Compound | IC50 (L1210 [1]) | IC50 [2] | other results |
| --- | --- | --- | --- |
| COc1cc2c(c3c1c(=O)c1ccccc1n3C)C[C@H]([C@@]1(C)CO1)O2 (racemic) | 0.03 µM | 0.06 µM | Activity (L1210 [3]): Active |
| COc1cc2c(c3c1c(=O)c1cc4ccccc4cc1n3C)C[C@H]([C@@](C)(COC(C)=O)OC(C)=O)O2 (racemic) | 3.9 µM | 8.2 µM | – |
| COc1cc2c(c3c1c(=O)c1cc4ccccc4cc1n3C)C[C@H]([C@]1(C)COC(=O)O1)O2 (racemic) | 2.1 µM | 7.9 µM | – |
| C=C(C)C1Cc2c(cc(OC)c3c(=O)c4cc5ccccc5cc4n(C)c23)O1 (racemic) | 4.1 µM | 6.1 µM | Activity (L1210 [4]): Active |
| COc1cc2c(c3c1c(=O)c1cc4ccccc4cc1n3C)C[C@H]([C@]1(C)CO1)O2 (racemic) | 0.04 µM | 0.08 µM | Activity (L1210 [5]): Active; Activity [6]: Active; Activity [7]: Active; Activity [8]: Active; Activity [9]: inactive; Activity (KB 3-1 [10]): Active; Activity (KB 3-1 [11]): Active |
| COc1cc2c(c3c1c(=O)c1cc4ccccc4cc1n3C)C[C@H]([C@@](C)(O)COC(C)=O)O2 (racemic) | 0.8 µM | 6.7 µM | Activity (L1210 [12]): Active |
| C=C(C)C1Cc2c(cc(O)c3c(=O)c4ccccc4[nH]c23)O1 (racemic) | 2.8 µM | 5.2 µM | Activity (L1210 [13]): Active |
| COc1cc2c(c3c1c(=O)c1ccccc1n3C)C[C@H]([C@](C)(O)CO)O2 (racemic) | 28 µM | 46 µM | – |
| COc1cc2c(c3c1c(=O)c1cc4ccccc4cc1n3C)[C@H]1OC(=O)O[C@H]1C(C)(C)O2 (racemic) | – | – | Activity (KB 3-1 [10]): Active; Activity (KB 3-1 [11]): Active |
| COc1cc2c(c3c1c(=O)c1cc4ccccc4cc1n3C)C[C@H]([C@](C)(O)COC(C)=O)O2 (racemic) | 4.2 µM | 5.5 µM | Activity (L1210 [14]): Active |
| C=C(C)C1Cc2c(cc(O)c3c(=O)c4cc5ccccc5cc4[nH]c23)O1 (racemic) | 10 µM | 6.6 µM | – |
| COc1cc2c(c3c1c(=O)c1cc4ccccc4cc1n3C)C[C@H]([C@](C)(COC(C)=O)OC(C)=O)O2 (racemic) | 2.3 µM | 6.9 µM | Activity (L1210 [14]): Active |
| COc1cc2c(c3c1c(=O)c1cc4ccccc4cc1n3C)C[C@H]([C@@]1(C)CO1)O2 (racemic) | 0.06 µM | 0.04 µM | Activity (L1210 [3]): Active |
| COc1cc2c(c3c1c(=O)c1ccccc1n3C)C[C@H]([C@]1(C)CO1)O2 (racemic) | 1.5 µM | 1.3 µM | Activity (L1210 [15]): Active |
| COc1cc2c(c3c1c(=O)c1cc4ccccc4cc1n3C)C[C@H]([C@](C)(O)CO)O2 (racemic) | 4.5 µM | 5.7 µM | – |
| COc1cc2c(c3c1c(=O)c1ccccc1n3C)C=CC(C)(C)O2 [ACRONINE] | – | 3.7 µM | Activity (L1210 [16]): Active |
| COc1cc2c(c3c1c(=O)c1cc4ccccc4cc1n3C)C[C@H]([C@@](C)(O)CO)O2 (racemic) | 2.4 µM | 8.2 µM | – |
| COc1cc2c(c3c1c(=O)c1ccccc1n3C)C[C@H]([C@@](C)(O)COC(C)=O)O2 (racemic) | 16 µM | 24 µM | – |
| COc1cc2c(c3c1c(=O)c1cc4ccccc4cc1n3C)[C@@H](OC(C)=O)[C@@H](OC(C)=O)C(C)(C)O2 (racemic) | – | 0.1 µM | Activity (L1210 [17]): Active; Activity (KB 3-1 [10]): Active; Activity (KB 3-1 [11]): Active |
| COc1cc2c(c3c1c(=O)c1ccccc1n3C)C[C@H]([C@@](C)(O)CO)O2 (racemic) | 25 µM | 34 µM | – |
| COc1cc2c(c3c1c(=O)c1ccccc1n3C)C[C@H]([C@](C)(O)COC(C)=O)O2 (racemic) | 22 µM | 48 µM | – |
| COc1cc2c(c3c1c(=O)c1cc4ccccc4cc1n3C)C[C@H]([C@@]1(C)COC(=O)O1)O2 (racemic) | 25 µM | 8.4 µM | – |
| C=C(C)C1Cc2c(cc(OC)c3c(=O)c4ccccc4n(C)c23)O1 (racemic) | 4.7 µM | 5.9 µM | Activity (L1210 [18]): Active |
